Key:
Assay in all cases: spectrophotometric GDH activity in […] cell homogenate
Format in all cases: biochemical
[1] = biological target: GDH (glutamate dehydrogenase, GLUD1) (Homo sapiens, UniProt P00367, H507Y)
[2] = biological target: GDH (glutamate dehydrogenase, GLUD1) (Homo sapiens, UniProt P00367, S498L)
[3] = biological target: GDH (glutamate dehydrogenase, GLUD1) (Homo sapiens, UniProt P00367)
Sequence of GDH (glutamate dehydrogenase, GLUD1) (Homo sapiens, UniProt P00367) (P00367 54-558): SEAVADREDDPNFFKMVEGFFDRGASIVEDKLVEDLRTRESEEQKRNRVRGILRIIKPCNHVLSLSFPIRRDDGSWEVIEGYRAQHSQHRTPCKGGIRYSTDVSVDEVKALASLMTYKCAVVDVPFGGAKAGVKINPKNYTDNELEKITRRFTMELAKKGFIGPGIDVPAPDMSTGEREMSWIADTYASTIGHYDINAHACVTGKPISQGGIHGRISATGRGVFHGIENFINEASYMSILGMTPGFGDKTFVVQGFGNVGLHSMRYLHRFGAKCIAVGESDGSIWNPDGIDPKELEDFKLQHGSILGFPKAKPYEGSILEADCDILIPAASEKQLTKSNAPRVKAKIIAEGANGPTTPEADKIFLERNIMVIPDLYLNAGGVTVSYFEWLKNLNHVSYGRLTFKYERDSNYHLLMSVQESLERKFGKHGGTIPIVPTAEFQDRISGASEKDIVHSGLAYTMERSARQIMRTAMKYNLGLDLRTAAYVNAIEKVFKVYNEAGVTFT

Sequence of GDH (glutamate dehydrogenase, GLUD1) (Homo sapiens, UniProt P00367, H507Y) (P00367 54-558 H507Y): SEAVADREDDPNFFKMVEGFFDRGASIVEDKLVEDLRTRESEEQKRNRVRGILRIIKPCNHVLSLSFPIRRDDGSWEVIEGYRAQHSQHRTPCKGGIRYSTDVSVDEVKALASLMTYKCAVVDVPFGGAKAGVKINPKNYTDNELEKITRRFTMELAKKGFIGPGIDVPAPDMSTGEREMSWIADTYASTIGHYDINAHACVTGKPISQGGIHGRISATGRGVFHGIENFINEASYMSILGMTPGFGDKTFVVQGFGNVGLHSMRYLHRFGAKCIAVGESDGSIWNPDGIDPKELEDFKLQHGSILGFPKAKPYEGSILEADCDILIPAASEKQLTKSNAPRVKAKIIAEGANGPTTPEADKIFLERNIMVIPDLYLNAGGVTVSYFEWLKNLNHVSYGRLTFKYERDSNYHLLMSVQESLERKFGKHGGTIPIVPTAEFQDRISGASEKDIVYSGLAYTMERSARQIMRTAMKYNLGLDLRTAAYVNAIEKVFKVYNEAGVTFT
Sequence of GDH (glutamate dehydrogenase, GLUD1) (Homo sapiens, UniProt P00367, S498L) (P00367 54-558 S498L): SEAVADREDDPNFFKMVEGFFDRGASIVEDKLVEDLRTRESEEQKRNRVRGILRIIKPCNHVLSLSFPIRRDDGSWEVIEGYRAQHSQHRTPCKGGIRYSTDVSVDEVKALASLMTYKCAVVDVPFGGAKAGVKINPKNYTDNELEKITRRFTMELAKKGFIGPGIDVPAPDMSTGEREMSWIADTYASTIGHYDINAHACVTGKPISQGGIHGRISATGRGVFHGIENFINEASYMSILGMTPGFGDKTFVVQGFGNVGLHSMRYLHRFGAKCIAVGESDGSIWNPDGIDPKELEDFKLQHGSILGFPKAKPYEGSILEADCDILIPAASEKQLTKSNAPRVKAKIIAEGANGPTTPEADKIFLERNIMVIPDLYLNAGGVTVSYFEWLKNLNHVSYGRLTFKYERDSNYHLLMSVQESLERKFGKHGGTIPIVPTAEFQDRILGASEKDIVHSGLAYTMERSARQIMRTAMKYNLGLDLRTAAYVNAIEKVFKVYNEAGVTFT

IC50 [1] [µM]	IC50 [2] [µM]	IC50 [3] [µM]	Structure (SMILES)
1.02	1.07	1.05	O=C(O[C@@H]1Cc2c(O)cc(O)cc2O[C@@H]1c1cc(O)c(O)c(O)c1)c1cc(O)c(O)c(O)c1 [EGCG]
314	40.7	0.048	Nc1nc2c(ncn2[C@@H]2O[C@H](COP(=O)(O)OP(=O)(O)OP(=O)(O)O)[C@@H](O)[C@H]2O)c(=O)[nH]1 [GTP]

Reference: paper PMC5545170 (Pediatric diabetes, 2017)
